# Reference: US10167262B2, “Herbicidal substituted 3-arylpyrazoles” (FMC CORPORATION, priority 2014, dated 2019)
# Assays:
# Format in all cases: in vivo
# wild oat (Avena fatua) = experiment: Test C postemergence greenhouse test, plant response rating 0-100; settings: for Plant response rating, Oat, Wild: scale 0 to 100
# Summary of the method: (§1)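 Visual rating vs. controls, 0 (no effect) to 100 (complete control), 13–15 d after postemergence treatment. Potted plants, 1- to 4-leaf stage (2–18 cm), greenhouse-held.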
# [1] = test system: chickweed (common chickweed, Stellaria media); experiment: as above; settings: for Plant response rating, Chickweed: scale 0 to 100
# Summary of the method: as §1
# kochia (Kochia scoparia) = experiment: as above; settings: for Plant response rating, Kochia: scale 0 to 100
# Summary of the method: as §1
# [2] = test system: galium (catchweed bedstraw, Galium aparine); experiment: Test C pre-/postemergence greenhouse test, plant response rating 0-100
# Summary of the method: (§2)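 Greenhouse test. Preemergence: seed in loam:sand, sprayed with formulated chemical (solvent + surfactant). Postemergence: 1–4 leaf plants, 2–18 cm, peat-based potting medium. Hold 13–15 d; score visually, 0 (none) to 100 (complete control); dash = not tested.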
# [3] = test system: winter wheat (Triticum aestivum); experiment: as above
# Summary of the method: as §2
# [4] = test system: pigweed (Amaranthus retroflexus); experiment: as above
# Summary of the method: as §2
# corn (Zea mays) = experiment: as above
# Summary of the method: as §2
# [5] = test system: johnsongrass (Sorghum halepense); experiment: as above
# Summary of the method: as §2
# [6] = test system: yellow nutsedge (Cyperus esculentus); experiment: as above
# Summary of the method: as §2
# [7] = test system: Italian ryegrass (Lolium multiflorum); experiment: as above
# Summary of the method: as §2
# [8] = test system: giant foxtail (Setaria faberii); experiment: as above
# Summary of the method: as §2
# soybean (Glycine max) = experiment: as above
# Summary of the method: as §2
# [9] = test system: lambsquarters (Chenopodium album); experiment: as above
# Summary of the method: as §2
# [10] = Postemergence, 250 g ai/ha, scale 0 to 100
# [11] = Postemergence, 500 g ai/ha, scale 0 to 100
compound,measurement,setting,value
CCOC(OCC)(c1cccs1)c1c[nH]nc1-c1cc(Cl)cc(Cl)c1 [Compound 27],"Plant response rating (0 to 100), Oat, Wild",wild oat (Avena fatua); 62 g ai/ha,0
same,"Plant response rating (0 to 100), Oat, Wild",wild oat (Avena fatua); 125 g ai/ha,0
same,"Plant response rating, Oat, Wild",wild oat (Avena fatua); 250 g ai/ha,5
same,"Plant response rating, Oat, Wild",wild oat (Avena fatua); 500 g ai/ha,5
same,"Plant response rating (0 to 100), Chickweed",[1]; 62 g ai/ha,80
same,"Plant response rating (0 to 100), Chickweed",[1]; 125 g ai/ha,85
same,"Plant response rating, Chickweed",[1]; 250 g ai/ha,90
same,"Plant response rating, Chickweed",[1]; 500 g ai/ha,90
same,"Plant response rating (0 to 100), Kochia",kochia (Kochia scoparia); 62 g ai/ha,80
same,"Plant response rating (0 to 100), Kochia",kochia (Kochia scoparia); 125 g ai/ha,80
same,"Plant response rating, Kochia",kochia (Kochia scoparia); 250 g ai/ha,90
same,"Plant response rating, Kochia",kochia (Kochia scoparia); 500 g ai/ha,90
same,"Plant response rating (0 to 100), Galium","[2]; Postemergence, 62 g ai/ha",0
same,"Plant response rating (0 to 100), Galium","[2]; Postemergence, 125 g ai/ha",0
same,"Plant response rating, Galium",[2]; [10],0
same,"Plant response rating, Galium",[2]; [11],0
same,"Plant response rating, Galium","[2]; Preemergence, 62 g ai/ha",0
same,"Plant response rating, Galium","[2]; Preemergence, 125 g ai/ha",50
same,"Plant response rating, Galium","[2]; Preemergence, 250 g ai/ha",80
same,"Plant response rating, Galium","[2]; Preemergence, 500 g ai/ha",30
same,"Plant response rating (0 to 100), Wheat","[3]; Postemergence, 62 g ai/ha",0
same,"Plant response rating (0 to 100), Wheat","[3]; Postemergence, 125 g ai/ha",0
same,"Plant response rating, Wheat",[3]; [10],0
same,"Plant response rating, Wheat",[3]; [11],0
same,"Plant response rating, Wheat","[3]; Preemergence, 62 g ai/ha",0
same,"Plant response rating, Wheat","[3]; Preemergence, 125 g ai/ha",0
same,"Plant response rating, Wheat","[3]; Preemergence, 250 g ai/ha",0
same,"Plant response rating, Wheat","[3]; Preemergence, 500 g ai/ha",0
same,"Plant response rating (0 to 100), Pigweed","[4]; Postemergence, 62 g ai/ha",80
same,"Plant response rating (0 to 100), Pigweed","[4]; Postemergence, 125 g ai/ha",95
same,"Plant response rating, Pigweed",[4]; [10],100
same,"Plant response rating, Pigweed",[4]; [11],100
same,"Plant response rating, Pigweed","[4]; Preemergence, 62 g ai/ha",98
same,"Plant response rating, Pigweed","[4]; Preemergence, 125 g ai/ha",100
same,"Plant response rating, Pigweed","[4]; Preemergence, 250 g ai/ha",100
same,"Plant response rating, Pigweed","[4]; Preemergence, 500 g ai/ha",100
same,"Plant response rating (0 to 100), Corn","corn (Zea mays); Postemergence, 62 g ai/ha",0
same,"Plant response rating (0 to 100), Corn","corn (Zea mays); Postemergence, 125 g ai/ha",0
same,"Plant response rating, Corn",corn (Zea mays); [10],0
same,"Plant response rating, Corn",corn (Zea mays); [11],0
same,"Plant response rating, Corn","corn (Zea mays); Preemergence, 62 g ai/ha",0
same,"Plant response rating, Corn","corn (Zea mays); Preemergence, 125 g ai/ha",0
same,"Plant response rating, Corn","corn (Zea mays); Preemergence, 250 g ai/ha",0
same,"Plant response rating, Corn","corn (Zea mays); Preemergence, 500 g ai/ha",0
same,"Plant response rating (0 to 100), Johnsongrass","[5]; Postemergence, 62 g ai/ha",0
same,"Plant response rating (0 to 100), Johnsongrass","[5]; Postemergence, 125 g ai/ha",0
same,"Plant response rating, Johnsongrass",[5]; [10],0
same,"Plant response rating, Johnsongrass",[5]; [11],10
same,"Plant response rating, Johnsongrass","[5]; Preemergence, 62 g ai/ha",0
same,"Plant response rating, Johnsongrass","[5]; Preemergence, 125 g ai/ha",0
same,"Plant response rating, Johnsongrass","[5]; Preemergence, 250 g ai/ha",0
same,"Plant response rating, Johnsongrass","[5]; Preemergence, 500 g ai/ha",0
same,"Plant response rating (0 to 100), Nutsedge, Yellow","[6]; Postemergence, 62 g ai/ha",0
same,"Plant response rating (0 to 100), Nutsedge, Yellow","[6]; Postemergence, 125 g ai/ha",0
same,"Plant response rating, Nutsedge, Yellow",[6]; [10],0
same,"Plant response rating, Nutsedge, Yellow",[6]; [11],0
same,"Plant response rating, Nutsedge, Yellow","[6]; Preemergence, 62 g ai/ha",0
same,"Plant response rating, Nutsedge, Yellow","[6]; Preemergence, 125 g ai/ha",0
same,"Plant response rating, Nutsedge, Yellow","[6]; Preemergence, 250 g ai/ha",0
same,"Plant response rating, Nutsedge, Yellow","[6]; Preemergence, 500 g ai/ha",0
same,"Plant response rating (0 to 100), Ryegrass, Italian","[7]; Postemergence, 62 g ai/ha",5
same,"Plant response rating (0 to 100), Ryegrass, Italian","[7]; Postemergence, 125 g ai/ha",0
same,"Plant response rating, Ryegrass, Italian",[7]; [10],5
same,"Plant response rating, Ryegrass, Italian",[7]; [11],5
same,"Plant response rating, Ryegrass, Italian","[7]; Preemergence, 62 g ai/ha",0
same,"Plant response rating, Ryegrass, Italian","[7]; Preemergence, 125 g ai/ha",0
same,"Plant response rating, Ryegrass, Italian","[7]; Preemergence, 250 g ai/ha",0
same,"Plant response rating, Ryegrass, Italian","[7]; Preemergence, 500 g ai/ha",0
same,"Plant response rating (0 to 100), Foxtail, Giant","[8]; Postemergence, 62 g ai/ha",0
same,"Plant response rating (0 to 100), Foxtail, Giant","[8]; Postemergence, 125 g ai/ha",0
same,"Plant response rating, Foxtail, Giant",[8]; [10],0
same,"Plant response rating, Foxtail, Giant",[8]; [11],0
same,"Plant response rating, Foxtail, Giant","[8]; Preemergence, 62 g ai/ha",0
same,"Plant response rating, Foxtail, Giant","[8]; Preemergence, 125 g ai/ha",0
same,"Plant response rating, Foxtail, Giant","[8]; Preemergence, 250 g ai/ha",0
same,"Plant response rating, Foxtail, Giant","[8]; Preemergence, 500 g ai/ha",0
same,"Plant response rating (0 to 100), Soybean","soybean (Glycine max); Postemergence, 62 g ai/ha",0
same,"Plant response rating (0 to 100), Soybean","soybean (Glycine max); Postemergence, 125 g ai/ha",0
same,"Plant response rating, Soybean",soybean (Glycine max); [10],0
same,"Plant response rating, Soybean",soybean (Glycine max); [11],0
same,"Plant response rating, Soybean","soybean (Glycine max); Preemergence, 62 g ai/ha",0
same,"Plant response rating, Soybean","soybean (Glycine max); Preemergence, 125 g ai/ha",0
same,"Plant response rating, Soybean","soybean (Glycine max); Preemergence, 250 g ai/ha",40
same,"Plant response rating, Soybean","soybean (Glycine max); Preemergence, 500 g ai/ha",0
same,"Plant response rating (0 to 100), Lambsquarters","[9]; Postemergence, 62 g ai/ha",75
same,"Plant response rating (0 to 100), Lambsquarters","[9]; Postemergence, 125 g ai/ha",95
same,"Plant response rating, Lambsquarters",[9]; [10],98
same,"Plant response rating, Lambsquarters",[9]; [11],98
same,"Plant response rating, Lambsquarters","[9]; Preemergence, 62 g ai/ha",100
same,"Plant response rating, Lambsquarters","[9]; Preemergence, 125 g ai/ha",100
same,"Plant response rating, Lambsquarters","[9]; Preemergence, 250 g ai/ha",100
same,"Plant response rating, Lambsquarters","[9]; Preemergence, 500 g ai/ha",100
